Measurements from US5808100A, “Chromene compounds and photochromic materials” (Tokuyama Corporation, priority 1995, dated 1998).

Legend:
[1] = Durability T1/2 by xenon fadometer FAC-25AX-HC; type: physicochemical; conditions: in polymer
Procedure: (§1) 0.05 Parts of the chromene compound obtained in Example 1 was added to 70 parts of a tetraethylene glycol dimethacrylate, 15 parts of a triethylene glycol dimethacrylate, 10 parts of a glycidyl methacrylate and 5 parts of a 2-hydroethyl methacrylate, and was mixed to a sufficient degree. The mixture solution was poured into a mold constituted by a glass plate and a gasket made from an ethylene/vinyl acetate copolymer and then polymerized. The polymerization was conducted by using an air furnace while gradually raising the temperature up to 30° C. to 90° C. over a period of 18 hours, the temperature being maintained at 90° C. for two hours. After the polymerization, the polymer was taken out from the glass mold.
(§2) Color fading rate [t1/2 ]: Time required by the polymer irradiated for 120 seconds until the absorbancy decreases down to one-half of [ε(120)-ε(0)]. Durability [T1/2 ]: Time required until the absorbency at the maximum absorption wavelength decreases down to 1/2 of the initial absorbency as measured by using a xenon fadometer FAC-25AX-HC manufactured by Suga Shikenki Co.
(§3) The photochromic polymers were obtained in the same manner as described above but using the compounds obtained in Examples 2 to 33 as chromene compounds. For the purpose of comparison, properties of the compounds represented by the following formulas (A), (B), (D) and (E) were also shown in Table 3. [drawing 110]

[2] = Photochromic properties of polymer (2 mm thick) containing the chromene compound, xenon lamp irradiation 120 seconds; type: physicochemical; set-up: key to Color density ε(120)-ε(0): absorbance at λmax after 120 s irradiation minus before, ε(120)-ε(0); conditions: for Color density ε(120)-ε(0): 120 seconds irradiation, 20° C.±1° C.; for Color density ε(120)-ε(0) / ε(0): absorbancy of the polymer not irradiated (initial color): at λmax; for Color fading rate t1/2: time until absorbancy decreases to one-half of [ε(120)-ε(0)]: after 120 seconds irradiation; for Maximum absorption wavelength λMax (developed color tone): polymer after developing color
Procedure: as §1
The obtained polymer (2 mm thick) was irradiated with light from a xenon lamp L-2480 (300 W) SHL-100 manufactured by Hamamatsu Photonics Co. through an Aero Mass filter (manufactured by Corning Co.) for 120 seconds under the conditions of 20° C.±1° C., beam intensities of 365 nm=2.4 mW/cm^2 and […]=24 μW/cm^2 on the polymer surface to develop color and to measure photochromic properties. The photochromic properties were expressed as described below.
Maximum absorption wavelength (λmax): λmax of the polymer after it has developed color was found by using a spectrophotometer (instantaneous multi-channel photodetector MCPD1000) manufactured by Otsuka Denshi Kogyo Co.
ε(120): Absorbancy of the polymer using light of a maximum absorption wavelength after it was irradiated under the above-mentioned conditions for 120 seconds.
ε(0): Absorbancy of the polymer that has not been irradiated using light of a wavelength same as the maximum absorption wavelength of light with which the polymer was irradiated.
ε(120)-ε(0): Color density
as §2, §3

| SMILES | Durability T1/2: time until absorbancy at maximum absorption wavelength decreases to 1/2 of the initial [1] | Color density ε(120)-ε(0) [2] | Color fading rate t1/2: time until absorbancy decreases to one-half of [ε(120)-ε(0)] [2] | ε(0): absorbancy of the polymer not irradiated (initial color) [2] | Maximum absorption wavelength λMax (developed color tone) [2] |
| --- | --- | --- | --- | --- | --- |
| C1=CC(c2ccco2)(c2cc3ccccc3o2)Oc2ccc3ccccc3c21 (centres unmarked) [Compound 25] | 22.5 days | 1.23 | 0.000683 days | 0.06 | 492 nm |
| Fc1c(C2(c3ccsc3)C=Cc3c(ccc4ccccc34)O2)ccc2ccccc12 (centres unmarked) [Compound 30] | 20.6 days | 1.18 | 0.00081 days | 0.04 | 450 nm |
| Fc1c(C2(c3ccco3)C=Cc3c(ccc4ccccc34)O2)ccc2ccccc12 (centres unmarked) [Compound 31] | 20.4 days | 1.44 | 0.000926 days | 0.06 | 480 nm |
| Fc1occc1C1(c2ccc3ccccc3c2)C=Cc2c(ccc3ccccc23)O1 (centres unmarked) [Compound 32] | 20.4 days | 1.28 | 0.000752 days | 0.05 | 450 nm |
| C1=CC(c2ccccc2)(c2cccs2)Oc2ccc3ccccc3c21 (centres unmarked) [D, reference compound] | 20.4 days | 0.51 | 0.000486 days | 0.04 | 466 nm |

Next, values leading:

| Durability T1/2: time until absorbancy at maximum absorption wavelength decreases to 1/2 of the initial [1] | Color density ε(120)-ε(0) [2] | Color fading rate t1/2: time until absorbancy decreases to one-half of [ε(120)-ε(0)] [2] | ε(0): absorbancy of the polymer not irradiated (initial color) [2] | Maximum absorption wavelength λMax (developed color tone) [2] | SMILES |
| --- | --- | --- | --- | --- | --- |
| 20 days | 1.12 | 0.000752 days | 0.05 | 458 nm | N#Cc1cc(Cl)c(C2(c3ccoc3)C=Cc3c(ccc4ccccc34)O2)s1 (centres unmarked) [Compound 24] |
| 21.2 days | 1.05 | 0.000579 days | 0.06 | 460 nm | C1=CC(c2ccco2)(c2csc3ccccc23)Oc2ccc3ccccc3c21 (centres unmarked) [Compound 26] |
| 20 days | 1.30 | 0.000949 days | 0.12 | 440 nm | COc1cc2c(c3ccccc13)C=CC(c1cc(Cl)c3ccccc3c1)(c1cc3ccccc3s1)O2 (centres unmarked) [Compound 29] |
| 20.6 days | 1.11 | 0.000787 days | 0.04 | 460 nm | Fc1cc2ccccc2cc1C1(c2cccs2)C=Cc2c(ccc3ccccc23)O1 (centres unmarked) [Compound 33] |
| 20.2 days | 0.86 | 0.000868 days | 0.26 | 514 nm | Cc1csc(C2(c3scc(C)c3C)C=Cc3c(ccc4ccccc34)O2)c1C [E, reference compound] |
